According to patent publication EP1658844A1, “Use of artemisinin derivatives in the manufacture of a medicament for the treatment of melanoma” (Schuler, Gerold, priority 2004, dated 2006):

Assays:
[1] = tested on: metastatic uveal melanoma
Protocol: In the experimental examples below, standard techniques of therapeutical agent administration were used. […] Artesunate was provided by Sanofi Synthelabo, France.
The clinical course of the disease and the treatment modalities are depicted in detail in Figure 1. […] A chemotherapy with Dacarbazin (DTIC) was initiated at a concentration of 850 mg per m^2 body surface.
The clinical course of the disease and the treatment modalities are depicted in detail in Figure 2. […] A chemotherapy with DTIC at a concentration of 850 mg per m^2 body surface was initiated. […] In addition, the patient received an iron medication (three times daily ferroglycine sulfate equivalent to 40 mg Fe^2+) to potentially increase the efficacy of ART.

nucleic acid synthesis = details: cited from earlier work
P388 leukemia = details: NCI report on NSC 369397; cited from earlier work
tumor = details: combination treatment with ferrous sulfate, three dog studies; cited from earlier work
[2] = tested on: cell line panels consisting of 60 lines; details: 60 cell lines in nine disease-related subpanels; cited from earlier work
uveal melanoma = details: largest prospective trial, metastatic uveal melanoma; cited from earlier work
[3] = within the group of artemisinin analogs; cited from earlier work

C[C@H]1[C@H](OC(=O)CCC(=O)O)O[C@@H]2O[C@@]3(C)CC[C@H]4[C@H](C)CC[C@@H]1[C@@]24OO3 [ART, (3R,5aS,6R,8aS,9R,10S,12R,12aR)-Decahydro-3,6,9-trimethyl-3,12-epoxy-12H-pyrano[4,3-j]1,2-benzodioxepin-10-ol,hydrogen succinate]
side effects throughout the combination therapy ([1]; human, in vivo): no additional side effects
toxicity of ART-treatment ([1]; human, in vivo): without measurable toxicity
survival after start of the ART/Fotemustine therapy ([1]; patient 1): 11 months
response at first staging ([1]; patient 1, ART 2 times daily 50 mg p.o. in combination with Fotemustine, three months after initiation): mixed response
time to death after entry into stage IV according to AJCC ([1]; patient 1, DTIC, then Fotemustine, then ART plus chemotherapy): 23 months
survival (still alive) after initiation of ART/DTIC-therapy ([1]; patient 2): ≥ 37 months
response ([1]; patient 2, 50 mg ART twice daily p.o. with DTIC and ferroglycine sulfate, after 21 courses of DTIC, the last 11 with ART): objective response
survival (still alive) after first diagnosis of stage IV uveal melanoma ([1]; patient 2, ART added to Dacarbazin): ≥ 37 months
activity relative to artemisinin in ability to inhibit nucleic acid synthesis (nucleic acid synthesis): 100 times

C[C@@H]1CC[C@H]2[C@@H](C)C(=O)O[C@@H]3O[C@@]4(C)CC[C@@H]1[C@]32OO4 [Artemisinin]
activity against P388 leukemia (P388 leukemia): inactive
tumor size (tumor): reduction of tumor size
anticancer activity [2]: very little anticancer activity

CCOP(=O)(OCC)C(C)NC(=O)N(CCCl)N=O (stereo not drawn) [Fotemustine]
complete responses (CR) (uveal melanoma): one CR in 48 patients

CCO[C@H]1O[C@@H]2O[C@@]3(C)CC[C@H]4[C@H](C)CC[C@@H]([C@H]1C)[C@@]24OO3 [arteether]
activity relative to artemisinin in ability to inhibit nucleic acid synthesis (nucleic acid synthesis): 100 times

C[C@H]1[C@@H](OCc2ccc(C(=O)O)cc2)O[C@@H]2O[C@@]3(C)CC[C@H]4[C@H](C)CC[C@@H]1[C@@]24OO3 [artelinic acid]
stability [3]: most stable
water solubility [3]: most water soluble
activity relative to artemisinin in ability to inhibit nucleic acid synthesis (nucleic acid synthesis): 100 times

CCCOC(=O)OC1O[C@@H]2O[C@@]3(C)CC[C@H]4[C@H](C)CC[C@@H]([C@H]1C)[C@@]24OO3 (stereo partly drawn) [propylcarbonate dihydroartemisinin]
activity relative to artemisinin in ability to inhibit nucleic acid synthesis (nucleic acid synthesis): 100 times
